The record followed here is PubChem BioAssay AID785 (University of Pittsburgh Molecular Library Screening Center, 2007).

This experiment concerns the target Serine/threonine-protein kinase PLK1 (Homo sapiens) (UniProt P53350). Description: PLK1 kinase inhibitor potency, dose response, biochemical, TR-FRET, IC50 (AID 785). Conditions: recombinant human Plk1, fluorescence polarization phosphopeptide binding, 3 h.

One may read the IC50 as the midpoint of a concentration-inhibition curve.

Sequence of Serine/threonine-protein kinase PLK1 (Homo sapiens) (P53350 whole entry, looked up): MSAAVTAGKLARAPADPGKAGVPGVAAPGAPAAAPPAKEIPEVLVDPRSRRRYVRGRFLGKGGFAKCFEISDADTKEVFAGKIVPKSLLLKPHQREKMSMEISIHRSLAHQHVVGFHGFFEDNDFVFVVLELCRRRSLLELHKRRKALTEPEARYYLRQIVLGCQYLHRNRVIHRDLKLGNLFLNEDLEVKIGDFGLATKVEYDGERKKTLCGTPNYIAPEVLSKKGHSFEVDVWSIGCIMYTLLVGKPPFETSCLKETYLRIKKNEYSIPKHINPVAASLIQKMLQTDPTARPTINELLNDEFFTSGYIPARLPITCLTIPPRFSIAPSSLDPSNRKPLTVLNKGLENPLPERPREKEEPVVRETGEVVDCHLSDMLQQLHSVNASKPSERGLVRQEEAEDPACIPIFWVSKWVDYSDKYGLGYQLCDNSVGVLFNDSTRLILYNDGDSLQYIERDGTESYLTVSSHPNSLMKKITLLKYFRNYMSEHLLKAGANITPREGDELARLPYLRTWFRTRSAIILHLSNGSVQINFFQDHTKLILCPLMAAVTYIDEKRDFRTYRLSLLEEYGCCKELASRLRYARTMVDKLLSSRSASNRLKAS

As for `c1ccc2c(-c3ccncc3)c[nH]c2c1`, the IC50 is 4.12 µM.
As for `Nc1[nH]ncc1N=Nc1ccc(Cl)cc1`, the figure is 2.22 µM.
Then `CCOC(=O)c1sc2nc[nH]c(=O)c2c1C`, with 3.09 µM.
In the case of `NC(=O)c1ccc(C(F)(F)F)n(Cc2cccc(Cl)c2)c1=O`, the half-maximal inhibitory concentration (IC50) is 22.8 µM.
Then `Nc1[nH]ncc1C(=O)Nc1cccc(C(F)(F)F)c1`, with 0.888 µM.
Then `O=C(CSc1n[nH]c(-c2ccc(Cl)cc2Cl)n1)Nc1ccccn1`, with 0.534 µM; and `Nc1ncnc(Nc2cccc(C(F)(F)F)c2)n1`, with 0.469 µM.
Turning to `O=c1[nH]cnc2scc(-c3cccs3)c12`, the IC50 is 4.24 µM.
Then `O=c1[nH]cnc2cc(-c3ccccc3)sc12`, with 6.2 µM; and `Cc1oc2ncnc(N)c2c1C`, with 3.75 µM; and `N#C/C(=N\Nc1c(Cl)cccc1Cl)C(=O)NN`, with 0.814 µM.
Then `COc1cccc(Nc2ncnc3nc[nH]c23)c1`, with 2.37 µM.
Turning to `COc1ccc(N2Nc3n[nH]c(N)c3N2)cc1`, the IC50 was 1.64 µM.
`COc1cc(/C=C(\C#N)c2[nH]nc(N)c2C#N)cc(OC)c1O`: the half-maximal inhibitory concentration (IC50) is 1.86 µM.
In the case of `Cc1c(C(=O)OC(C)C)sc2nc[nH]c(=O)c12`, the IC50 is 4.01 µM.
Turning to `CCc1nc2n[nH]c(N)c2c2c1CSC(C)(C)C2`, the IC50 is 5.1 µM.
As for `O=C(Nc1cccnc1)c1cnn2cccnc12`, the figure is 4.07 µM; as for `CCOC(=O)c1c(-c2ccncc2)csc1N`, 7.01 µM.
As to `C=CCNc1nc(N)c(C(=O)c2ccc3c(c2)OCO3)s1`, the IC50 is 3.85 µM.
In the case of `COc1ccccc1Nc1ncnc2nc[nH]c12`, the concentration for half-maximal inhibition (IC50) was 1.01 µM.
With `Cc1cc(C(C#N)c2cccc(Cl)c2)n2ncnc2n1` (centres undefined), the half-inhibitory concentration (IC50) is 5.98 µM.
As for `Cc1ncc([N+](=O)[O-])n1CCOC(=O)Nc1ccc(Cl)c(Cl)c1`, the figure is 0.775 µM; as for `COC(=O)c1c(-c2ccc(Br)cc2)noc1N`, 7.93 µM.
As for `CC1CCN(c2ncnc3nc[nH]c23)CC1`, the figure is 3.13 µM.
On to `Nc1nc2ccc([N+](=O)[O-])c(N)c2s1`, for which the half-maximal inhibitory concentration (IC50) is 0.235 µM.
As for `O=C(O)c1ccc2c(c1)[C@@H]1C=CC[C@@H]1[C@H](c1ccccn1)N2`, the IC50 was 16.9 µM.
Then `Cc1nc2c([nH]1)C1(CCN(Cc3ccccc3)CC1)C(C#N)=C(N)O2`, with 0.823 µM; and `Cc1cccc(Nc2ncnc3nc[nH]c23)c1`, with 2.23 µM.
Turning to `Cc1cccc(N=Nc2c(N)n[nH]c2-c2ccc(Cl)cc2)c1`, the IC50 is 18.5 µM.
Consider `O=c1[nH]cnc2sc(-c3ccccc3)cc12`, for which the IC50 was 6.08 µM.
Then `NNc1ncnc2c1cnn2-c1ccccc1`, with 4.18 µM.
Then `COC(=O)c1sc2nc[nH]c(=O)c2c1C`, with 1.44 µM; and `COc1ccc(Cn2c(N)c(C(=O)NCc3ccco3)c3nc4ccccc4nc32)cc1OC`, with 8.82 µM; and `Cc1[nH]nc2c1C1(CCN(Cc3ccccc3)CC1)C(C#N)=C(N)O2`, with 1.4 µM.
Then `N#Cc1c(-c2ccc3c(c2)OCO3)csc1N`, with 10.7 µM; and `CC1Cc2nc(SCC(=O)Nc3nccs3)n(C)c(=O)c2S1` (centres undefined), with 9.72 µM; and `CCOc1ccc(N2Nc3n[nH]c(N)c3N2)cc1`, with 3.4 µM.
For `Nc1ncnc(Nc2ccccc2C(F)(F)F)n1`, the IC50 is 4.84 µM.
Then `CCOc1c(Br)ccc2c1sc1nc[nH]c(=O)c12`, with 2.15 µM.
